Assay results from patent US11014904B2, “1,2,4-triazine-3-amine derivative, preparation method therefor, and use thereof in medicine” (Jiangsu Hengrui Medicine Co., Ltd., priority 2017, dated 2021).

target: T1, adenosine A1 receptor (A1R) (Homo sapiens, UniProt P30542); experiment: Inhibition of the adenosine A1 receptor cAMP signaling pathway in CHO-K1/A1R cells (HTRF); assay type: cell-based; conditions: CHO-K1/A1R cells, cAMP, forskolin 10 μM, CPA 10 nM
T1 construct: expressed in transfected cells; host or cells: CHO-K1
T1 sequence (P30542 1-326): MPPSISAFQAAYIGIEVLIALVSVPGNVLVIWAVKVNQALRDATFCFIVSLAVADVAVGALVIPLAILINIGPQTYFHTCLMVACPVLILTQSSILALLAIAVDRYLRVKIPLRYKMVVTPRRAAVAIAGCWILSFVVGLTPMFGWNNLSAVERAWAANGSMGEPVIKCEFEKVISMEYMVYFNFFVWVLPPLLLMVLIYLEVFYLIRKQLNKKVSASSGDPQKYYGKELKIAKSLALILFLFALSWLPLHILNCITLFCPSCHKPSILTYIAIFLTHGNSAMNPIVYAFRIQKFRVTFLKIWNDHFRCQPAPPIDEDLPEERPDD
Text: (§1) Determination of the inhibition activity of the compounds of the present invention on the adenosine A2a receptor (A2aR) cAMP signaling pathway, the adenosine A2b receptor (A2bR) cAMP signaling pathway, the adenosine A1 receptor (A1R) cAMP signaling pathway and the adenosine A3 receptor (A3R) cAMP signaling pathway.
(§2) The inhibition activity of the compounds of the present invention on the adenosine A2a receptor (A2aR) cAMP signaling pathway, the adenosine A2b receptor cAMP signaling pathway, the adenosine A1 receptor cAMP signaling pathway and the adenosine A3 receptor cAMP signaling pathway was determined by the following method. The experimental method is briefly described as follows:
2.3 Adenosine A1 Receptor
CHO-K1/A1R cells were cultured in DMEM/F12 medium containing 10% fetal bovine serum and 1 mg/ml G418. The cells were digested with the cell separation buffer during the experiment. The cells were then resuspended in the balanced salt buffer containing 20 mM HEPES and 0.1% bovine serum albumin and counted, and the cell density was adjusted to 5×10^5 cells/ml. In the 384-well plate, each well was added with 12.5 μl of cell suspension, and 6.25 μl of test compound (4× concentration) formulated with the balanced salt buffer containing 20 mM HEPES, 0.1% bovine serum albumin, 54 μM rolipram and 2.7 U/ml adenosine deaminase, and the plate was incubated at room temperature for 30 minutes. Each well was then added with 6.25 μl of forskolin and N6-cyclopentyladenosine (4× concentration) formulated with the balanced salt buffer containing 20 mM HEPES, 0.1% bovine serum albumin, 54 μM rolipram and 2.7 U/ml adenosine deaminase, and the plate was incubated at room temperature for 30 minutes. The final concentrations of the compounds were: 100000, 10000, 1000, 100, 10, 1, 0.1 and 0 nM. The final concentrations of forskolin was 10 μM. The final concentrations of CPA was 10 nM. Intracellular cAMP concentration was detected with the cAMP dynamic 2 kit. cAMP-d2 and Anti-cAMP-Eu-Cryptate were diluted respectively with the cAMP lysis buffer at a ratio of 1:4. Each well was added with 12.5 μl of diluted cAMP-d2, followed by addition of 12.5 μl of diluted Anti-cAMP-Eu-Cryptate, and the plate was incubated at room temperature in the dark for 1 hour. The HTRF signal values were read by the PHERAstar multi-function microplate reader.

| Structure (SMILES) | IC50 [nM] |
| --- | --- |
| Cc1ncnc2c(F)cc(-c3nnc(N)nc3-c3ccc(F)cc3)cc12 [Example 50, 6-(8-Fluoro-4-methylquinazolin-6-yl)-5-(4-fluorophenyl)-1,2,4-triazin-3-amine] | 3260 |
| Cc1cc(-c2nc(N)nnc2-c2ccc3nccc(C)c3c2)ccn1 [Example 48, 5-(2-Methylpyridin-4-yl)-6-(4-methylquinolin-6-yl)-1,2,4-triazin-3-amine] | 3280 |
| Cc1cc(-c2nnc(N)nc2-c2ccccc2)cc2cccnc12 [Example 1, 6-(8-Methylquinolin-6-yl)-5-phenyl-1,2,4-triazin-3-amine] | 121 |

same assay, conditions: selectivity A1R over A2aR

| Structure (SMILES) | IC50 ratio (A1R/A2aR) |
| --- | --- |
| Cc1ncnc2c(F)cc(-c3nnc(N)nc3-c3ccc(F)cc3)cc12 [Example 50, 6-(8-Fluoro-4-methylquinazolin-6-yl)-5-(4-fluorophenyl)-1,2,4-triazin-3-amine] | 1018 |
| Cc1cc(-c2nc(N)nnc2-c2ccc3nccc(C)c3c2)ccn1 [Example 48, 5-(2-Methylpyridin-4-yl)-6-(4-methylquinolin-6-yl)-1,2,4-triazin-3-amine] | 1365 |
| Cc1cc(-c2nnc(N)nc2-c2ccccc2)cc2cccnc12 [Example 1, 6-(8-Methylquinolin-6-yl)-5-phenyl-1,2,4-triazin-3-amine] | 242 |

target: T2, adenosine A3 receptor (A3R) (Homo sapiens, UniProt P0DMS8); experiment: Inhibition of the adenosine A3 receptor cAMP signaling pathway in CHO-K1/A3R cells (HTRF); assay type: cell-based; conditions: CHO-K1/A3R cells, cAMP, forskolin 10 μM, 2Cl-IB-MECA 5 nM
T2 construct: expressed in transfected cells; host or cells: CHO-K1
T2 sequence (P0DMS8 1-318): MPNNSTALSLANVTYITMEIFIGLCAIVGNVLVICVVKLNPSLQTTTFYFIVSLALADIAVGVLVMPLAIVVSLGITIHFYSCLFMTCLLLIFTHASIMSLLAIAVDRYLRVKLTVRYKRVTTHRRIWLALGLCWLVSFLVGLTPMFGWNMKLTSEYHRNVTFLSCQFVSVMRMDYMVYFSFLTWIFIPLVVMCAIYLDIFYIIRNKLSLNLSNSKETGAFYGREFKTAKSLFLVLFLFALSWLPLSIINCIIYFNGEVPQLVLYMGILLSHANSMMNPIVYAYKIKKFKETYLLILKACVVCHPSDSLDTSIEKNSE
Text: as §1, §2
2.4 Adenosine A3 Receptor
CHO-K1/A3R cells were cultured in DMEM/F12 medium containing 10% fetal bovine serum and 10 μg/ml puromycin. The cells were digested with the cell separation buffer during the experiment. The cells were resuspended in the balanced salt buffer containing 20 mM HEPES and 0.1% bovine serum albumin and counted, and the cell density was adjusted to 5×10^5 cells/ml. In the 384-well plate, each well was added with 12.5 μl of cell suspension, and 6.25 μl of test compound (4× concentration) formulated with the balanced salt buffer containing 20 mM HEPES, 0.1% bovine serum albumin, 54 μM rolipram and 2.7 U/ml adenosine deaminase, and the plate was incubated at room temperature for 30 minutes. Each well was then added with 6.25 μl of forskolin and 2Cl-IB-MECA (4× concentration) formulated with the balanced salt buffer containing 20 mM HEPES, 0.1% bovine serum albumin, 54 μM rolipram and 2.7 U/ml adenosine deaminase, and the plate was incubated at room temperature for 30 minutes. The final concentrations of the compounds were: 100000, 10000, 1000, 100, 10, 1, 0.1 and 0 nM. The final concentrations of forskolin was 10 μM. The final concentration of 2Cl-IB-MECA was 5 nM. Intracellular cAMP concentration was detected with the cAMP dynamic 2 kit. cAMP-d2 and Anti-cAMP-Eu-Cryptate were diluted respectively with the cAMP lysis buffer at a ratio of 1:4. Each well was added with 12.5 μl of diluted cAMP-d2, followed by addition of 12.5 μl of diluted Anti-cAMP-Eu-Cryptate, and the plate was incubated at room temperature in the dark for 1 hour. The HTRF signal values were read by the PHERAstar multi-function microplate reader.

| Structure (SMILES) | IC50 [nM] |
| --- | --- |
| Cc1ncnc2c(F)cc(-c3nnc(N)nc3-c3ccc(F)cc3)cc12 [Example 50, 6-(8-Fluoro-4-methylquinazolin-6-yl)-5-(4-fluorophenyl)-1,2,4-triazin-3-amine] | > 10000 |
| Cc1cc(-c2nc(N)nnc2-c2ccc3nccc(C)c3c2)ccn1 [Example 48, 5-(2-Methylpyridin-4-yl)-6-(4-methylquinolin-6-yl)-1,2,4-triazin-3-amine] | > 10000 |
| Cc1cc(-c2nnc(N)nc2-c2ccccc2)cc2cccnc12 [Example 1, 6-(8-Methylquinolin-6-yl)-5-phenyl-1,2,4-triazin-3-amine] | > 10000 |

same assay, conditions: selectivity A3R over A2aR

| Structure (SMILES) | IC50 ratio (A3R/A2aR) |
| --- | --- |
| Cc1ncnc2c(F)cc(-c3nnc(N)nc3-c3ccc(F)cc3)cc12 [Example 50, 6-(8-Fluoro-4-methylquinazolin-6-yl)-5-(4-fluorophenyl)-1,2,4-triazin-3-amine] | >10^3 |
| Cc1cc(-c2nc(N)nnc2-c2ccc3nccc(C)c3c2)ccn1 [Example 48, 5-(2-Methylpyridin-4-yl)-6-(4-methylquinolin-6-yl)-1,2,4-triazin-3-amine] | >10^3 |
| Cc1cc(-c2nnc(N)nc2-c2ccccc2)cc2cccnc12 [Example 1, 6-(8-Methylquinolin-6-yl)-5-phenyl-1,2,4-triazin-3-amine] | >10^4 |

target: T3, adenosine A2b receptor (A2bR) (Homo sapiens, UniProt P29275); experiment: Inhibition of the adenosine A2b receptor cAMP signaling pathway in CHO-K1/A2bR cells (HTRF); assay type: cell-based; conditions: ethyl carbazole 1 μM, Table 2
T3 construct: expressed in transfected cells; host or cells: CHO-K1
T3 sequence (P29275 1-332): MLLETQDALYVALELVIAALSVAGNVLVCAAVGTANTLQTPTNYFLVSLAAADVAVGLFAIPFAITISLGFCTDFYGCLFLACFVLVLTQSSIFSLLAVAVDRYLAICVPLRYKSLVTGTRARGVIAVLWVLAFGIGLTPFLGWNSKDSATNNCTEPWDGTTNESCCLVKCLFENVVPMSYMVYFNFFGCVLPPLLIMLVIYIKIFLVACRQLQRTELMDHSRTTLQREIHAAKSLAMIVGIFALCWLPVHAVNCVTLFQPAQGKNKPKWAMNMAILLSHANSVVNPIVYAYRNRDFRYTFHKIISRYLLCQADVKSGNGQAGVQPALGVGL
Text: as §1, §2
2.2 Adenosine A2b Receptor
CHO-K1/A2bR cells were cultured in DMEM/F12 medium containing 10% fetal bovine serum and 1 mg/ml G418. The cells were digested with the cell separation buffer during the experiment. The cells were resuspended in the balanced salt buffer containing 20 mM HEPES and 0.1% bovine serum albumin and counted, and the cell density was adjusted to 10^6 cells/ml. In the 384-well plate, each well was added with 5 μl of cell suspension, and 2.5 μl of test compound (4× concentration) formulated with the balanced salt buffer containing 20 mM HEPES, 0.1% bovine serum albumin, 54 μM rolipram and 2.7 U/ml adenosine deaminase, and the plate was incubated at room temperature for 30 minutes. Each well was then added with 2.5 μl of […] (4× concentration) (Torcis, 1691/10) formulated with the balanced salt buffer containing 20 mM HEPES, 0.1% bovine serum albumin, 54 μM rolipram and 2.7 U/ml adenosine deaminase, and the plate was incubated at room temperature for 30 minutes. The final concentrations of the compounds were: 100000, 10000, 1000, 100, 10, 1, 0.1 and 0 nM. The final concentration of […] was 1 μM. Intracellular cAMP concentration was detected with the cAMP dynamic 2 kit. cAMP-d2 and Anti-cAMP-Eu-Cryptate were diluted respectively with the cAMP lysis buffer at a ratio of 1:4. Each well was added with 5 μl of diluted cAMP-d2, followed by addition of 5 μl of diluted Anti-cAMP-Eu-Cryptate, and the plate was incubated at room temperature in the dark for 1 hour. The HTRF signal values were read by the PHERAstar multi-function microplate reader.

| Structure (SMILES) | IC50 [nM] |
| --- | --- |
| COc1ccnc2ccc(-c3nnc(N)nc3-c3ccccc3)cc12 [Example 23, 6-(4-Methoxyquinolin-6-yl)-5-phenyl-1,2,4-triazin-3-amine] | 17 |

target: T4, adenosine A2a receptor (A2aR) (Homo sapiens, UniProt P29274); experiment: Inhibition of the adenosine A2a receptor cAMP signaling pathway in CHO-K1/A2aR cells (HTRF); assay type: cell-based; conditions: CHO-K1/A2aR cells, cAMP, NECA 20 nM; Table 1
T4 construct: expressed in transfected cells; host or cells: CHO-K1
Text: as §1, §2
2.1 Adenosine A2a receptor
CHO-K1/A2aR cells were cultured in DMEM/F12 medium containing 10% fetal bovine serum and 800 μg/ml bleomycin. The cells were digested with the cell separation buffer during the experiment. The cells were resuspended in the balanced salt buffer containing 20 mM HEPES and 0.1% bovine serum albumin and counted, and the cell density was adjusted to 10^6 cells/ml. In the 384-well plate, each well was added with 5 μl of cell suspension, and 2.5 μl of test compound (4× concentration) formulated with the balanced salt buffer containing 20 mM HEPES, 0.1% bovine serum albumin, 54 μM rolipram and 2.7 U/ml adenosine deaminase, and the plate was incubated at room temperature for 30 minutes. Each well was then added with 2.5 μl of […] (4× concentration) formulated with the balanced salt buffer containing 20 mM HEPES, 0.1% bovine serum albumin, 54 μM rolipram and 2.7 U/ml adenosine deaminase, and the plate was incubated at room temperature for 30 minutes. The final concentrations of the compounds were: 10000, 2000, 400, 80, 16, 3.2, 0.64, 0.128, 0.0256, 0.00512, and 0.001024 nM. The final concentration of […] was 20 nM. Intracellular cAMP concentration was detected with the cAMP dynamic 2 kit. cAMP-d2 and Anti-cAMP-Eu-Cryptate were diluted respectively with the cAMP lysis buffer at a ratio of 1:4. Each well was added with 5 μl of diluted cAMP-d2, followed by addition of 5 μl of diluted Anti-cAMP-Eu-Cryptate, and the plate was incubated at room temperature in the dark for 1 hour. The HTRF signal values were read by the PHERAstar multi-function microplate reader.

T4 sequence (P29274 whole entry): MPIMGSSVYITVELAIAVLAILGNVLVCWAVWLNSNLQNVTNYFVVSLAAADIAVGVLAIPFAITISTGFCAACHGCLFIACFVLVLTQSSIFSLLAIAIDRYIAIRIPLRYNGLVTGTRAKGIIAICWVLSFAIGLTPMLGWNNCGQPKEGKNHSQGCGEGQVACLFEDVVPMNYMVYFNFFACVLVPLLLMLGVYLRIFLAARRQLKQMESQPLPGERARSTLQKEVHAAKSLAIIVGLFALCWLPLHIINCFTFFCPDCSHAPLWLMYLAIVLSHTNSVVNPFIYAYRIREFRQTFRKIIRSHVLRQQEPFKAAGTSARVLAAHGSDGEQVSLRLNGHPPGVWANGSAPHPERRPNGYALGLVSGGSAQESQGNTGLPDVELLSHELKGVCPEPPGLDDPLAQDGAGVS

| Structure (SMILES) | IC50 [nM] |
| --- | --- |
| COc1ccnc2ccc(-c3nnc(N)nc3-c3ccccc3)cc12 [Example 23, 6-(4-Methoxyquinolin-6-yl)-5-phenyl-1,2,4-triazin-3-amine] | 0.4 |
| Cc1ncnc2c(F)cc(-c3nnc(N)nc3-c3ccc(F)cc3)cc12 [Example 50, 6-(8-Fluoro-4-methylquinazolin-6-yl)-5-(4-fluorophenyl)-1,2,4-triazin-3-amine] | 3.2 |
| Cc1cc(-c2nc(N)nnc2-c2ccc3nccc(C)c3c2)ccn1 [Example 48, 5-(2-Methylpyridin-4-yl)-6-(4-methylquinolin-6-yl)-1,2,4-triazin-3-amine] | 2.4 |
| Cc1cc(-c2nnc(N)nc2-c2ccccc2)cc2cccnc12 [Example 1, 6-(8-Methylquinolin-6-yl)-5-phenyl-1,2,4-triazin-3-amine] | 0.5 |
